From the NIST ThermoML archive (doi:10.1016/j.jct.2014.06.006)
± gives the expanded uncertainty stated by the source.

Assay: activity coefficient (dimensionless); of the first substance listed, at infinite dilution; xn = mol fraction of the nth substance listed
Conditions: 298 K; 238 kPa; Liquid; Chromatography; x1 = 0

SMILES | activity coefficient
CCc1ccccc1 [ethylbenzene] + CC(O)CO | 26.2 ± 3.1
C1CCCCC1 [cyclohexane] + COCCO | 11.4 ± 0.7
CCCCCCCCC [nonane] + COCCO | 41.4 ± 1.7
Cc1ccc(C)cc1 [1,4-dimethylbenzene] + COCCO | 5.2 ± 0.3
CCCCCCCCCC [decane] + COCCO | 56.8 ± 2.2
Fc1ccccc1 [fluorobenzene] + CC(O)CO | 8.5 ± 0.5
c1ccccc1 [benzene] + COCCO | 2.4 ± 0.4
CC1CCCCC1 [methylcyclohexane] + COCCO | 14.7 ± 0.9
CCc1ccccc1 [ethylbenzene] + COCCO | 4.9 ± 0.3
CCCCCCC [heptane] + CC(O)CO | 109 ± 30
Cc1cccc(C)c1 [1,3-dimethylbenzene] + CC(O)CO | 28.4 ± 2.2
Clc1ccccc1 [chlorobenzene] + COCCO | 2.9 ± 0.4
Cc1ccccc1 [toluene] + COCCO | 3.6 ± 0.4
CCCCCC [hexane] + CC(O)CO | 63 ± 20
CCCCCCCC [octane] + COCCO | 27.9 ± 1
Clc1ccccc1 [chlorobenzene] + CC(O)CO | 13.6 ± 1.1
c1ccccc1 [benzene] + CC(O)CO | 11.8 ± 1.1
C=CCCCCC=C [1,7-octadiene] + COCCO | 10.6 ± 0.5

SMILES | activity coefficient
Cc1ccc(C(C)C)cc1 [1-(1-methylethyl)-4-methylbenzene] + COCCO | 10 ± 0.5
Cc1ccccc1 [toluene] + CC(O)CO | 17 ± 2.1
c1ccc2ccccc2c1 [naphthalene] + CC(O)CO | 136 ± 21
C1=CCCCC1 [cyclohexene] + COCCO | 7.4 ± 0.3
c1ccc2ccccc2c1 [naphthalene] + COCCO | 11 ± 2
CC1CCCC1 [methylcyclopentane] + COCCO | 11 ± 0.7
Cc1ccccc1C [1,2-dimethylbenzene] + COCCO | 5 ± 0.3
Brc1ccccc1 [bromobenzene] + COCCO | 3.5 ± 0.2
Cc1cccc(C)c1 [1,3-dimethylbenzene] + COCCO | 5.2 ± 0.3
C=CC1CC=CCC1 (stereo unspecified) [4-ethenylcyclohexene] + COCCO | 8.6 ± 0.3
CCCCCCCC [octane] + CC(O)CO | 150 ± 40
CCCCCCCCCCC [undecane] + COCCO | 94.6 ± 3.7
Cc1ccc(C)cc1 [1,4-dimethylbenzene] + CC(O)CO | 26.7 ± 3.1
Cc1ccccc1C [1,2-dimethylbenzene] + CC(O)CO | 26.3 ± 3.1
C1CCCCCCC1 [cyclooctane] + COCCO | 20.1 ± 0.9
Fc1ccccc1 [fluorobenzene] + COCCO | 1.8 ± 0.2
CCCCCC [hexane] + COCCO | 16.3 ± 0.8
CCCCCCC [heptane] + COCCO | 22.4 ± 0.9
